In patent US20260347310A1, “PHENALKYLAMINES AND METHODS OF MAKING AND USING THE SAME” (GILGAMESH PHARMACEUTICALS, INC., priority 2022, published 2026):

Assays:
[1] = Metabolic stability in dog liver microsomes (DLM); format: in vitro ADME, Beagle dogs; conditions: for stability in DLM (in words): 1 μM, 0.50 mg protein/mL, 1 mM NADPH, 37 °C, 60 min; for half-life at 1 µM / microsomal CLint at 1 µM: dog liver microsomes 0.50 mg/mL, NADPH 1 mM, test compound 1 μM, 37° C., pH 7.4, 60 min
Experimental: (§1) Test Compounds. Compounds were prepared as described above.
DLM Stability. Pooled DLM from adult male Beagle dogs (Xenotech D1000) were used. Microsomal incubations were carried out in multi-well plates. Liver microsomal incubation medium consisted of PBS (100 mM, pH 7.4), MgCl2 (1 mM), and NADPH (1 mM), with 0.50 mg of liver microsomal protein per mL. Control incubations were performed by replacing the NADPH-cofactor system with PBS. Test compounds (1 μM, final solvent concentration 1.0%) were incubated with microsomes at 37° C. with constant shaking. Six time points over 60 minutes were analyzed, with 60 μL aliquots of the reaction mixture being drawn at each time point. The reaction aliquots were stopped by adding 180 μL of cold (4° C.) acetonitrile containing 200 ng/mL tolbutamide and 200 ng/mL labetalol as internal standards (IS), followed by shaking for 10 minutes, and then protein sedimentation by centrifugation at 4,000 rpm for 20 minutes at 4° C. Supernatant samples (80 μL) were diluted with water (240 μL) and analyzed for parent compound remaining using a fit-for-purpose liquid chromatography-tandem mass spectrometry (LC-MS/MS) method.
Data Analysis. The elimination constant (kel), half-life (t1/2), and intrinsic clearance (CLint) were determined in a plot of […] versus time, using linear regression analysis.

5-HT2C receptor = biological target: T1, 5-HT2C receptor (Homo sapiens, UniProt P28335); test: FLIPR Ca2+ flux functional agonist assay at 5-HT2C; format: cell-based; set-up: expressed in transfected cells; conditions: for Emax: agonist activity, FLIPR Ca2+ flux, stably transfected cells, at max dose, read-out: 5-HT2C % Act @ Max Dose
T1 sequence (P28335 33-458): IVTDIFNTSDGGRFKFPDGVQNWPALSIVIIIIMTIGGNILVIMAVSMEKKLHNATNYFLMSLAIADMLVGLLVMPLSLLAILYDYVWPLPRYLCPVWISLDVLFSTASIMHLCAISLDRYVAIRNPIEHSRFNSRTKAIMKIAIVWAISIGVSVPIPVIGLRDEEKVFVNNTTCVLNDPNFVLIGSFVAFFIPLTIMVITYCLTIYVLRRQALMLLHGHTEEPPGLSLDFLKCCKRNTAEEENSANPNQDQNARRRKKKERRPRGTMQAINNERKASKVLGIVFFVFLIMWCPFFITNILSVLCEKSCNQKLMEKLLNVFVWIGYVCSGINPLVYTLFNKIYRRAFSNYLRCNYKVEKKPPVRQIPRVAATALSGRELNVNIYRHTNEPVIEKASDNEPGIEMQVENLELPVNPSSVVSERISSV
Experimental: Disclosed compounds were tested for agonist activity at several serotonin receptor subtypes (5-HT2A, […], and 5-HT2C) using Ca^2+ flux functional assays, with the results summarized in Table 9.
as §1
Functional Assays at 5-HT2C. Agonist activity at 5-HT2C was determined using a FLIPR Ca^2+ flux assay at Eurofins DiscoverX (Fremont, CA) according to their standard protocols. Briefly, stably transfected cells expressing the human 5-HT2C receptor were grown and plated in a 384-well plate and incubated at 37° C. and 5% CO2 overnight. Assays were performed in 1× Dye Loading Buffer consisting of 1× Dye, 1× Additive A, and 2.5 mM Probenecid in HBSS/20 mM Hepes. Probenecid was prepared fresh. Cells were loaded with dye prior to testing and incubated at 37° C. for 30-60 minutes. After dye loading, cells were removed from the incubator and 10 μL HBSS/20 mM Hepes was added. 3× vehicle was included in the assay buffer. Cells were incubated for 30 mins at room temperature in the dark to equilibrate plate temperature. Intermediate dilution of sample stocks was performed to generate 4× sample in assay buffer. Compound agonist activity was measured on a FLIPR Tetra (MDS). Calcium mobilization was monitored for 2 minutes and 10 μL 4× sample in HBSS/20 mM Hepes was added to the cells 5 seconds into the assay.

5-HT2B receptor = biological target: T2, 5-HT2B receptor (Homo sapiens, UniProt P41595); test: Radioligand binding at 5-HT2B ([3H]LSD)
T2 construct: expressed in transfected cells; host or cells: HEK293
T2 sequence (P41595 whole entry): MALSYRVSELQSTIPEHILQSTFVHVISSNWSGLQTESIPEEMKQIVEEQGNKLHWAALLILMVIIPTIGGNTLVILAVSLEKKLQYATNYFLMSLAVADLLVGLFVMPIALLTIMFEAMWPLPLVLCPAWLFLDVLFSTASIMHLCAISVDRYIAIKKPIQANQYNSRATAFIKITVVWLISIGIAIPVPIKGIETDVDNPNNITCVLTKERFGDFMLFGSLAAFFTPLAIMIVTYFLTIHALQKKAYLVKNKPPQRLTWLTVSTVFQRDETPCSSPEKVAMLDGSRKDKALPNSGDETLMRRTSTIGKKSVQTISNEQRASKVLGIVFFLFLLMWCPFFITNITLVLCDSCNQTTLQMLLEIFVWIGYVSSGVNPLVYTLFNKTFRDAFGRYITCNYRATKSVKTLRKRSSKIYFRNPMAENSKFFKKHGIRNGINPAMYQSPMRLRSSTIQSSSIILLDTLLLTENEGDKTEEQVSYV
Experimental: The binding affinities of disclosed compounds at the ketanserin binding site of the 5-HT2A receptor, the LSD binding site of the 5-HT2B receptor, and the mesulergine binding site of the 5-HT2C receptor were determined in radioligand binding experiments.
Method. The affinity of the test compounds for 5-HT2A, 5-HT2B, and 5-HT2C receptors was determined in radioligand binding experiments with [^3H]ketanserin, [^3H]LSD, and [^3H]mesulergine, respectively, by WuXi AppTec (Hong Kong) Limited, using methods adapted from the literature and under conditions described in Table 7.

Row | Structure (SMILES) | stability in DLM (in words) [1] | half-life at 1 µM [1] [min] | microsomal CLint at 1 µM [1] [µL/min/mg] | CLint and half-life in DLM (in words) ([1]; 1R versus 1S) | EC50 (5-HT2C receptor) [nM] | fold more potent at 5-HT2C (5-HT2C receptor; 1R compared to 1S, Ca2+ flux) | Emax (5-HT2C receptor) [%] | Ki (5-HT2B receptor) [nM] | fold lower affinity at 5-HT2B (5-HT2B receptor; 1R compared to 1S)
1 | CCC(N)Cc1cc(OC)c(CCCCCC(F)(F)F)cc1OC (racemic) [Compound 2a, 1-(2,5-dimethoxy-4-(6,6,6-trifluorohexyl)phenyl)butan-2-amine] | significantly higher stability compared to 1R and 1S | 71.3 | 19.4 | – | – | – | – | – | –
2 | CCCCCCc1cc(OC)c(C[C@H](N)CC)cc1OC [Compound 1R, (R)-1-(4-hexyl-2,5-dimethoxyphenyl)butan-2-amine] | substantially less stable than 1S | 11.3 | 122 | higher CLint and shorter half-life | 1190 | ~ 3 fold | 104 | 111 | ~ 36 fold
3 | CCCCCCc1cc(OC)c(C[C@@H](N)CC)cc1OC [Compound 1S, (S)-1-(4-hexyl-2,5-dimethoxyphenyl)butan-2-amine] | – | 22.9 | 60.4 | – | 3130 | – | 106 | 3.1 | –
